Experimental data as given in patent US10959432B2, “Microbiocidal oxadiazole derivatives” (Syngenta Participations AG, priority 2016, dated 2021).

Experiments:
Uromyces viciae-fabae = assay: Fungicidal activity against Uromyces viciae-fabae / field bean / leaf disc preventative (faba-bean rust); type: in vivo; conditions: foliar, 288 h, 100 ppm in the applied formulation, field bean leaf discs, preventative (inoculated two hours after application), assessed 12 days after application, read-out: disease control compared to untreated control leaf discs
Summary of the method: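 Field bean leaf discs on water agar treated with 10 μl compound in acetone plus spreader, then spray-inoculated on the lower surface with Uromyces viciae-fabae spores 2 h later. Incubation at 22 °C, 18 h day, 70% RH; percent disease control versus untreated scored 12 days after application, compounds at 100 ppm.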

[1] = test system: Glomerella laqenarium (Colletotrichum lagenarium); assay: Fungicidal activity against Glomerella lagenarium (Colletotrichum lagenarium) liquid culture / cucumber / preventative (anthracnose); type: cell-based; conditions: Colletotrichum orbiculare; 20 ppm in the applied formulation; liquid culture in PDB, 24° C., 3 to 4 days after application; read-out: disease control compared to untreated control (inhibition of growth measured photometrically)
Summary of the method: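 Cryostored conidia mixed into potato dextrose broth and added to test compound (from DMSO solution) in microtiter plates. Incubated at 24 °C; growth inhibition read photometrically 3 to 4 days after application, as percent activity versus untreated check.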

Phakopsora pachyrhizi = assay: Fungicidal activity against Phakopsora pachyrhizi / soybean / leaf disc preventative (Asian soybean rust); type: in vivo; conditions: foliar, 200 ppm in the applied formulation, soybean leaf disks, preventative (inoculated one day after application), assessed 12 to 14 days after application, read-out: disease control compared to untreated control leaf disks
Summary of the method: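 Soybean leaf discs on water agar sprayed with formulated compound diluted in water; spore suspension sprayed on lower leaf surface one day later. Incubated 24-36 h dark at 20° C, 75% rh, then 20° C, 12 h light/day, 75% rh. Percent disease control versus untreated scored 12 to 14 days after application.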

[2] = test system: Puccinia recondita f. sp. tritici; assay: Fungicidal activity against Puccinia recondita f. sp. tritici / wheat / leaf disc curative (brown rust); type: in vivo; conditions: foliar, 200 ppm in the applied formulation, wheat leaf segments cv. Kanzler, curative (applied 1 day after inoculation), assessed 6 to 8 days after application, read-out: disease control compared to untreated control leaf disks
Summary of the method: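 Wheat cv. Kanzler leaf segments on agar, spore-inoculated, held dark at 19° C./75% RH; formulated compound in water sprayed 1 day post-inoculation (curative). Incubated 19° C., 75% RH, 12 h light/12 h dark; percent disease control vs untreated scored 6 to 8 days after application.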

[3] = test system: Puccinia recondita f. sp. tritici; assay: Fungicidal activity against Puccinia recondita f. sp. tritici / wheat / leaf disc preventative (brown rust); type: in vivo; conditions: foliar, 200 ppm in the applied formulation, wheat leaf segments cv. Kanzler, preventative (inoculated 1 day after application), assessed 7 to 9 days after application, read-out: disease control compared to untreated control leaf disks
Summary of the method: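 Wheat cv. Kanzler leaf segments on agar sprayed with formulated compound diluted in water, inoculated with P. recondita spores 1 day later. Incubated at 19C, 75% rh, 12 h light/12 h dark; scored 7 to 9 days after application as percent disease control versus untreated segments. Test rate 200 ppm.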

O=C(NCC1COCCO1)c1ccc(-c2noc(C(F)(F)F)n2)cc1 (stereo not shown) [Compound 1a.2, N-(1,4-dioxan-2-ylmethyl)-4-[5-(trifluoromethyl)-1,2,4-oxadiazol-3-yl]benzamide]
≥ 80%: pest or weed control at 100 ppm (Uromyces viciae-fabae) | inhibition at 20 ppm [1] | pest or weed control at 200 ppm (Phakopsora pachyrhizi) | pest or weed control at 200 ppm [2] | pest or weed control at 200 ppm [3]

CON1CCC(N(C)C(=O)c2ccc(-c3noc(C(F)(F)F)n3)cc2)CC1 [Compound 1a.3, N-(1-methoxy-4-piperidyl)-N-methyl-4-[5-(trifluoromethyl)-1,2,4-oxadiazol-3-yl]benzamide]
≥ 80%: pest or weed control at 100 ppm (Uromyces viciae-fabae) | inhibition at 20 ppm [1] | pest or weed control at 200 ppm [2] | pest or weed control at 200 ppm [3]

CCN(C(=O)c1ccc(-c2noc(C(F)(F)F)n2)cc1)C1CCN(OC)CC1 [Compound 1a.4, N-ethyl-N-(1-methoxy-4-piperidyl)-4-[5-(trifluoromethyl)-1,2,4-oxadiazol-3-yl]benzamide]
≥ 80%: pest or weed control at 100 ppm (Uromyces viciae-fabae) | inhibition at 20 ppm [1] | pest or weed control at 200 ppm [2] | pest or weed control at 200 ppm [3]

O=C(NC1CCCSC1)c1ccc(-c2noc(C(F)(F)F)n2)cc1F (stereo not shown) [Compound 1b.5, 2-fluoro-N-tetrahydrothiopyran-3-yl-4-[5-(trifluoromethyl)-1,2,4-oxadiazol-3-yl]benzamide]
≥ 80%: pest or weed control at 100 ppm (Uromyces viciae-fabae) | inhibition at 20 ppm [1] | pest or weed control at 200 ppm (Phakopsora pachyrhizi) | pest or weed control at 200 ppm [2] | pest or weed control at 200 ppm [3]

CN(CC1COCCO1)C(=O)c1ccc(-c2noc(C(F)(F)F)n2)cc1F (stereo not shown) [Compound 1b.9, N-(1,4-dioxan-2-ylmethyl)-2-fluoro-N-methyl-4-[5-(trifluoromethyl)-1,2,4-oxadiazol-3-yl]benzamide]
≥ 80%: pest or weed control at 100 ppm (Uromyces viciae-fabae) | inhibition at 20 ppm [1] | pest or weed control at 200 ppm (Phakopsora pachyrhizi) | pest or weed control at 200 ppm [2] | pest or weed control at 200 ppm [3]

O=C(NC1CCCC1(F)F)c1ccc(-c2noc(C(F)(F)F)n2)cc1 (stereo not shown) [Compound 2a.9, N-(2,2-difluorocyclopentyl)-4-[5-(trifluoromethyl)-1,2,4-oxadiazol-3-yl]benzamide]
≥ 80%: pest or weed control at 100 ppm (Uromyces viciae-fabae) | inhibition at 20 ppm [1] | pest or weed control at 200 ppm (Phakopsora pachyrhizi) | pest or weed control at 200 ppm [2] | pest or weed control at 200 ppm [3]

O=C(NC1CCC1)c1ccc(-c2noc(C(F)(F)F)n2)cc1F [Compound 2b.3, N-cyclobutyl-2-fluoro-4-[5-(trifluoromethyl)-1,2,4-oxadiazol-3-yl]benzamide]
≥ 80%: pest or weed control at 100 ppm (Uromyces viciae-fabae) | inhibition at 20 ppm [1] | pest or weed control at 200 ppm (Phakopsora pachyrhizi) | pest or weed control at 200 ppm [2] | pest or weed control at 200 ppm [3]

O=C(NCC1CC(F)(F)C1(F)F)c1ccc(-c2noc(C(F)(F)F)n2)cc1F (stereo not shown) [Compound 2b.4, 2-fluoro-N-[(2,2,3,3-tetrafluorocyclobuty)methyl]-4-[5-(trifluoromethyl)-1,2,4-oxadiazol-3-yl]benzamide]
≥ 80%: pest or weed control at 100 ppm (Uromyces viciae-fabae) | inhibition at 20 ppm [1] | pest or weed control at 200 ppm (Phakopsora pachyrhizi) | pest or weed control at 200 ppm [2] | pest or weed control at 200 ppm [3]

CC(NC(=O)c1ccc(-c2noc(C(F)(F)F)n2)cc1F)C1CC1 (stereo not shown) [Compound 2b.5, N-(1-cyclopropylethyl)-2-fluoro-4-[5-(trifluoromethyl)-1,2,4-oxadiazol-3-yl]benzamide]
≥ 80%: pest or weed control at 100 ppm (Uromyces viciae-fabae) | inhibition at 20 ppm [1] | pest or weed control at 200 ppm (Phakopsora pachyrhizi) | pest or weed control at 200 ppm [2] | pest or weed control at 200 ppm [3]

CN(CC(=O)NC(C)(C)C)C(=O)c1ccc(-c2noc(C(F)(F)F)n2)cc1 [Compound 3a.3, N-[2-(tert-butylamino)-2-oxo-ethyl]-N-methyl-4-[5-(trifluoromethyl)-1,2,4-oxadiazol-3-yl]benzamide]
≥ 80%: pest or weed control at 100 ppm (Uromyces viciae-fabae) | inhibition at 20 ppm [1] | pest or weed control at 200 ppm (Phakopsora pachyrhizi) | pest or weed control at 200 ppm [2] | pest or weed control at 200 ppm [3]

COc1ccc(CNC(=O)c2ccc(-c3noc(C(F)(F)F)n3)cc2)c(OC)c1 [Compound 4a.13, N-[(2,4-dimethoxyphenyl)methyl]-4-[5-(trifluoromethyl)-1,2,4-oxadiazol-3-yl]benzamide]
≥ 80%: pest or weed control at 100 ppm (Uromyces viciae-fabae) | inhibition at 20 ppm [1] | pest or weed control at 200 ppm (Phakopsora pachyrhizi) | pest or weed control at 200 ppm [2] | pest or weed control at 200 ppm [3]

CN(Cc1ccccc1F)C(=O)c1ccc(-c2noc(C(F)(F)F)n2)cc1F [Compound 4b.9, 2-fluoro-N-[(2-fluorophenyl)methyl]-N-methyl-4-[5-(trifluoromethyl)-1,2,4-oxadiazol-3-yl]benzamide]
≥ 80%: pest or weed control at 100 ppm (Uromyces viciae-fabae) | inhibition at 20 ppm [1] | pest or weed control at 200 ppm (Phakopsora pachyrhizi) | pest or weed control at 200 ppm [2] | pest or weed control at 200 ppm [3]

CN(Cc1ccc(Cl)nc1)C(=O)c1ccc(-c2noc(C(F)(F)F)n2)cc1 [Compound 5a.9, N-[(6-chloro-3-pyridyl)methyl]-N-methyl-4-[5-(trifluoromethyl)-1,2,4-oxadiazol-3-yl]benzamide]
≥ 80%: pest or weed control at 100 ppm (Uromyces viciae-fabae) | inhibition at 20 ppm [1] | pest or weed control at 200 ppm (Phakopsora pachyrhizi) | pest or weed control at 200 ppm [2] | pest or weed control at 200 ppm [3]

O=C(NCc1nccs1)c1ccc(-c2noc(C(F)(F)F)n2)cc1 [Compound 5a.10, N-(thiazol-2-ylmethyl)-4-[5-(trifluoromethyl)-1,2,4-oxadiazol-3-yl]benzamide]
≥ 80%: pest or weed control at 100 ppm (Uromyces viciae-fabae) | inhibition at 20 ppm [1] | pest or weed control at 200 ppm (Phakopsora pachyrhizi) | pest or weed control at 200 ppm [2] | pest or weed control at 200 ppm [3]

CN(Cc1cccs1)C(=O)c1ccc(-c2noc(C(F)(F)F)n2)cc1F [Compound 5b.2, 2-fluoro-N-methyl-N-(2-thienylmethyl)-4-[5-(trifluoromethyl)-1,2,4-oxadiazol-3-yl]benzamide]
≥ 80%: pest or weed control at 100 ppm (Uromyces viciae-fabae) | inhibition at 20 ppm [1] | pest or weed control at 200 ppm (Phakopsora pachyrhizi) | pest or weed control at 200 ppm [2] | pest or weed control at 200 ppm [3]

Cc1ccc(CNC(=O)c2ccc(-c3noc(C(F)(F)F)n3)cc2F)o1 [Compound 5b.9, 2-fluoro-N-[(5-methyl-2-furyl)methyl]-4-[5-(trifluoromethyl)-1,2,4-oxadiazol-3-yl]benzamide]
≥ 80%: pest or weed control at 100 ppm (Uromyces viciae-fabae) | inhibition at 20 ppm [1] | pest or weed control at 200 ppm (Phakopsora pachyrhizi) | pest or weed control at 200 ppm [2] | pest or weed control at 200 ppm [3]

O=C(NCc1ccco1)c1ccc(-c2noc(C(F)(F)F)n2)cc1F [Compound 5b.11, 2-fluoro-N-(2-furylmethyl)-4-[5-(trifluoromethyl)-1,2,4-oxadiazol-3-yl]benzamide]
≥ 80%: pest or weed control at 100 ppm (Uromyces viciae-fabae) | inhibition at 20 ppm [1] | pest or weed control at 200 ppm (Phakopsora pachyrhizi) | pest or weed control at 200 ppm [2] | pest or weed control at 200 ppm [3]

O=C(NCCc1cccs1)c1ccc(-c2noc(C(F)(F)F)n2)cc1F [Compound 5b.13, 2-fluoro-N-[2-(2-thienyl)ethyl]-4-[5-(trifluoromethyl)-1,2,4-oxadiazol-3-yl]benzamide]
≥ 80%: pest or weed control at 100 ppm (Uromyces viciae-fabae) | inhibition at 20 ppm [1] | pest or weed control at 200 ppm (Phakopsora pachyrhizi) | pest or weed control at 200 ppm [2] | pest or weed control at 200 ppm [3]
